A short description of one data set: Cys/Cys side-chain stapling of bis-cysteine Omomyc mutants by S-alkylation with bis(bromomethyl)arenes (1.25 eq): 4,4'-bis(bromomethyl)biphenyl for i,i+7 or 1,3-bis(bromomethyl)benzene (with 2 eq TCEP) for i,i+4; pH 8. The note with it: the molecule shown is the open-chain precursor; 22-membered ring; 100 mM aq NH4HCO3 pH 8 / 25% MeCN; 0.1 mM.
The substance “H-AMADIGSMAC(SH)EENC(SH)KRRTHNVLERQRRNELKRSFFALRDQIPELENNEKAPKVVILKKATAYILSVQAETQKLISEIDLLRKQNEQLKHKLEQLRNSAA-OH” came in with a ring closure, isolated yield of 38%. The same measure, in the same setting: to “H-AMADIGSMATEENC(SH)KRRC(SH)HNVLERQRRNELKRSFFALRDQIPELENNEKAPKVVILKKATAYILSVQAETQKLISEIDLLRKQNEQLKHKLEQLRNSAA-OH” belongs 26%.

The same data set, now with this note: the molecule shown is the open-chain precursor; 36-membered ring; 100 mM aq NH4HCO3 pH 8 / 25% MeCN; 0.1 mM.
“H-AMADIGSMATEENVKRRTHNC(SH)LERQRRC(SH)ELKRSFFALRDQIPELENNEKAPKVVILKKATAYILSVQAETQKLISEIDLLRKQNEQLKHKLEQLRNSAAPAAKRVKLD-OH” yielded a ring closure, isolated yield of 60%. With “H-AMADIGSMATEENVKRRTHNC(SH)LERQRRC(SH)ELKRSFFALRDQIPELENNEKAPKVVILKKATAYILSVQAETQKLISEIDLLRKQNEQLKHKLEQLRNSAA-OH”, the ring closure, isolated yield was determined as 69%.

“H-AMADIGSPAAKRVKLDMATEENVKRRTHNC(SH)LERQRRC(SH)ELKRSFFALRDQIPELENNEKAPKVVILKKATAYILSVQAETQKLISEIDLLRKQNEQLKHKLEQLRNSAA-OH” came in with a ring closure, isolated yield of 46%. “H-AMADIGSMATEENC(SH)KRRTHNC(SH)LERQRRNELKRSFFALRDQIPELENNEKAPKVVILKKATAYILSVQAETQKLISEIDLLRKQNEQLKHKLEQLRNSAA-OH” showed a ring closure, isolated yield of 67%.

(Values after article PMC13065503.)
